Measured values taken from US20110171279A1, “POLYETHYLENIMINE BIOCIDES” (NDSU RESEARCH FOUNDATION, priority 2009, published 2011).
≈ marks a conversion by molar mass, not a printed value. Like-named read-outs stand apart in the source and are kept apart here.

What was measured:
Type in all cases: cell-based
Escherichia coli = test: Growth reduction / MIC test against Escherichia coli in Luria-Bertani broth, absorbance 600 nm; details: for MIC: Escherichia coli, read-out: E. Coli MIC; for Percent reduction in growth of Escherichia coli: Table 3
Experimental: (§1) The antimicrobial properties of the Formulations were determined by measuring the minimum inhibitory concentration (MIC) or by using an adaptation of the MIC test. […] Additional details of the MIC method can be found at Andrews, J. M., Journal of Antimicrobial Chemotherapy (2001) 48, 5-16, incorporated herein by reference in its entirety.
(§2) In accordance with the MIC test, working solutions for each Formulation were prepared by dissolving 100 mg of each Formulation in 10 mL of methanol (Sigma-Aldrich) to generate a 10 mg/mL solution. Next, 10 ml of Luria-Bertani broth was spiked with 200 μL of the mg/mL Formulation solution to achieve a final concentration of 0.2 mg/mL.
0.2 mL of each concentration of each Formulation (spiked with E. coli) was added in triplicate to a 96-well plate. Additionally, 0.2 mL of Luria-Bertani broth without any E. coli or Formulation and 0.2 mL of Luria-Bertani broth with E. coli, but no Formulations, served as negative and positive growth controls, respectively. Plates were then placed in an incubator, at 37° C. for 24 hrs (with shaking), and then measured for growth by taking absorbance measurements at 600 nm with a multi-well plate spectrophotometer (Synergy HT). The efficacy of each Formulation was measured by determining the percent reduction in bacterial growth as a function of Formulation concentration.
Next, the antimicrobial activity of Formulations 69-77 and Reference 1 toward E. coli was measured by determining the percent reduction in bacterial growth as a function of concentration. The results for the examples were compared to various PEIs used to produce the examples.

Halomonas pacifica = test: Growth reduction / MIC test against Halomonas pacifica; details: for MIC: Bisbaumannia pacifica; for Percent reduction in growth of Halomonas pacifica: Table 6
Experimental: as §1
as §2, with “ml of Guillard's F/2 medium was spiked” for “ml of Luria-Bertani broth was spiked”, “of the 10 mg/mL Formulation” for “of the mg/mL Formulation”
0.2 mL of each H. pacifica concentration was added in triplicate to a 96-well plate. Additionally, 0.2 mL of Guillard's F/2 medium without any H. pacifica or Formulation and 0.2 mL of Guillard's F/2 medium with H. pacifica, but no Formulations, served as negative and positive growth controls, respectively. The 96-well plates were placed in an illuminated growth cabinet with a 16:8 light:dark cycle (photon flux density 33 μmol m^−2 s^−1) for 48 hrs at 18° C. and measured for chlorophyll fluorescence using a multi-well plate spectrophotometer (excitation: 360 nm; emission: 670 nm). The efficacy of each Formulation was measured by determining the percent reduction in diatom growth as a function of Formulation concentration.
The antimicrobial activity of Formulations 10-12, also derived from ETCS and PEI, was determined toward a suite of marine microorganisms, namely, Pseudoalteromonas atlantica, Cellulophaga lytica, Cobetia marina, and Halomonas pacifica. The antimicrobial activity of Formulations 10-12 was determined toward these marine microorganisms according to the methods of EXAMPLES 5-7. The MIC for each Formulation against each strain is compared to that of the PEI, ETCS, and TCS (alone) in Table 7.

Navicula incerta = test: Growth reduction / MIC test against Navicula incerta in Guillard's F/2 medium, chlorophyll fluorescence; details: Table 12; read-out: N. incerta MIC
[1] = Formulation Concentration 0.78125 μg/mL
[2] = Formulation Concentration 1.5625 μg/mL
[3] = Formulation Concentration 3.125 μg/mL
[4] = Formulation Concentration 6.25 μg/mL
[5] = Formulation Concentration 12.5 μg/mL
[6] = Formulation Concentration 25 μg/mL
[7] = Formulation Concentration 50 μg/mL
[8] = Formulation Concentration 100 μg/mL

| SMILES | Percent reduction in growth of Escherichia coli (Escherichia coli; [1]) [%] | Percent reduction in growth of Escherichia coli (Escherichia coli; [2]) [%] | Percent reduction in growth of Escherichia coli (Escherichia coli; [3]) [%] | Percent reduction in growth of Escherichia coli (Escherichia coli; [4]) [%] | Percent reduction in growth of Escherichia coli (Escherichia coli; [5]) [%] | Percent reduction in growth of Escherichia coli (Escherichia coli; [6]) [%] | Percent reduction in growth of Escherichia coli (Escherichia coli; [7]) [%] | Percent reduction in growth of Escherichia coli (Escherichia coli; [8]) [%] | Percent reduction in growth of Halomonas pacifica (Halomonas pacifica; [1]) [%] | Percent reduction in growth of Halomonas pacifica (Halomonas pacifica; [2]) [%] | Percent reduction in growth of Halomonas pacifica (Halomonas pacifica; [3]) [%] | Percent reduction in growth of Halomonas pacifica (Halomonas pacifica; [4]) [%] | Percent reduction in growth of Halomonas pacifica (Halomonas pacifica; [5]) [%] | Percent reduction in growth of Halomonas pacifica (Halomonas pacifica; [6]) [%] | Percent reduction in growth of Halomonas pacifica (Halomonas pacifica; [7]) [%] | Percent reduction in growth of Halomonas pacifica (Halomonas pacifica; [8]) [%] | further results |
| --- | --- | --- | --- | --- | --- | --- | --- | --- | --- | --- | --- | --- | --- | --- | --- | --- | --- |
| Clc1ccc(Oc2ccc(Cl)cc2OCC2CO2)c(Cl)c1 (stereo not drawn) [ETCS, 2-((5-chloro-2-(2,4-dichlorophenoxy)phenoxy)methyl)oxirane] | 0.00 | 0.00 | 0.00 | 0.00 | 0.00 | 0.00 | 0.00 | 0.26 | 0.00 | 11.15 | 11.78 | 12.90 | 16.72 | 16.08 | 7.01 | 0.00 | MIC (Escherichia coli; Table 12): > 100 µg/mL; MIC (Halomonas pacifica; Table 7, read-out: H. pacifica MIC): > 100 µg/mL; H. pacifica MIC (Halomonas pacifica; Table 12): >100 µg/mL; MIC (Navicula incerta): > 100 µg/mL |
| Oc1cc(Cl)ccc1Oc1ccc(Cl)cc1Cl [TCS, triclosan] | 14.66 | 52.34 | 93.43 | 93.93 | 93.43 | 93.93 | 93.93 | 93.93 | 0.00 | 0.00 | 0.00 | 9.94 | 17.32 | 37.65 | 93.07 | 92.77 | MIC (Escherichia coli): 0.781 µg/mL; MIC (Halomonas pacifica; read-out: H. pacifica MIC, Table 7): 50 to 100 µg/mL (≈ 173 to 345 µM); MIC (Halomonas pacifica; read-out: H. pacifica MIC, Table 12): 100 µg/mL (≈ 345 µM) |
